In patent EP4001279A1, “NOVEL SPIROPYRROLIDINE DERIVED ANTIVIRAL AGENTS” (Enanta Pharmaceuticals, Inc., priority 2020, dated 2022):

System: 229E human corona virus (hCoV)
Assay: 229E live virus assay (CPE, ATPlite readout in MRC-5 cells)
Format: cell-based, hCoV-229E
Details: Human coronavirus 229E, MRC5, hCoV-229E live virus, MOI 0.05, ATPlite readout, run in duplicate

Row | Structure (SMILES) | EC50 [nM]
1 | CN(C(=O)c1cc2c(F)cc(F)cc2[nH]1)[C@@H](CC1CCC1)C(=O)N1C[C@]2(C[C@H]1C#N)C(=O)Nc1ccccc12 [Example 91] | < 100
2 | COc1cccc2[nH]c(C(=O)N(C)[C@@H](CC3CCC3)C(=O)N3C[C@]4(C[C@H]3C#N)C(=O)Nc3ccccc34)cc12 [Example 92] | < 100
3 | CN(C(=O)c1cc2c(F)cccc2[nH]1)[C@@H](CC1CCC1)C(=O)N1C[C@]2(C[C@H]1C#N)C(=O)Nc1ccccc12 [Example 93] | < 100
4 | CCN(C(=O)c1cc2c(F)cccc2[nH]1)[C@@H](CC(C)C)C(=O)N1C[C@]2(C[C@H]1C#N)C(=O)Nc1ccccc12 [Example 95] | 100 to 1000
5 | C=CCN(C(=O)OCc1ccccc1)[C@@H](CC(C)C)C(=O)N1C[C@]2(C[C@H]1C#N)C(=O)Nc1ccccc12 [Example 96] | 100 to 1000
6 | CCCN(C(=O)OCc1ccccc1)[C@@H](CC(C)C)C(=O)N1C[C@]2(C[C@H]1C#N)C(=O)Nc1ccccc12 [Example 97] | > 1000
7 | CCCN(C(=O)c1cc2c(F)cccc2[nH]1)[C@@H](CC(C)C)C(=O)N1C[C@]2(C[C@H]1C#N)C(=O)Nc1ccccc12 [Example 98] | 100 to 1000
8 | CC(C)CC[C@@H](C(=O)N1C[C@]2(C[C@H]1C#N)C(=O)Nc1ccccc12)N(C)C(=O)OCc1ccccc1 [Example 100] | 100 to 1000
9 | CN(C(=O)OCc1ccccc1)[C@@H](CC1CC1)C(=O)N1C[C@]2(C[C@H]1C#N)C(=O)Nc1ccccc12 [Example 102] | > 1000
10 | CC(C)CC[C@@H](C(=O)N1C[C@]2(C[C@H]1C#N)C(=O)Nc1ccccc12)N(C)C(=O)c1cc2c(F)cc(F)cc2[nH]1 [Example 104] | < 100
11 | COc1cccc2[nH]c(C(=O)N(C)[C@@H](CCC(C)C)C(=O)N3C[C@]4(C[C@H]3C#N)C(=O)Nc3ccccc34)cc12 [Example 105] | < 100
12 | COc1cccc2[nH]c(C(=O)N(C)[C@@H](CC3CCCCC3)C(=O)N3C[C@]4(C[C@H]3C#N)C(=O)Nc3ccccc34)cc12 [Example 113] | < 100
13 | COc1cccc2[nH]c(C(=O)N(C)[C@@H](CC3CC3)C(=O)N3C[C@]4(C[C@H]3C#N)C(=O)Nc3ccccc34)cc12 [Example 114] | < 100
14 | CN(C(=O)c1cc2c(F)cc(F)cc2[nH]1)[C@@H](CC1CC1)C(=O)N1C[C@]2(C[C@H]1C#N)C(=O)Nc1ccccc12 [Example 115] | < 100
15 | CN(C(=O)c1cc2c(F)cccc2[nH]1)[C@@H](CC1CC1)C(=O)N1C[C@]2(C[C@H]1C#N)C(=O)Nc1ccccc12 [Example 116] | < 100
16 | COc1cccc2[nH]c(C(=O)N[C@@H](CC(C)C)C(=O)N3C[C@]4(C[C@H]3C=O)C(=O)N(C)c3ccccc34)cc12 [Example 119] | 100 to 1000
17 | COc1cccc2[nH]c(C(=O)N[C@@H](CC(C)C)C(=O)N3C[C@]4(C[C@H]3C#N)C(=O)N(C)c3ccccc34)cc12 [Example 120] | > 1000
18 | COc1cccc2[nH]c(C(=O)N(C)[C@@H](CC(C)C)C(=O)N3C[C@]4(C[C@H]3C#N)C(=O)N(C)c3ccccc34)cc12 [Example 121] | 100 to 1000
19 | CC(C)C[C@H](NC(=O)NCc1ccccc1)C(=O)N1C[C@]2(C[C@H]1C#N)C(=O)Nc1ccccc12 [Example 122] | 100 to 1000
20 | CC(C)(F)C[C@H](NC(=O)c1cc2c(F)cc(F)cc2[nH]1)C(=O)N1C[C@]2(C[C@H]1C#N)C(=O)Nc1ccc(Cl)cc12 [Example 123] | < 100

Row | Structure (SMILES) | EC50 [nM]
21 | CCCOC[C@H](NC(=O)c1cc2c(OC)cccc2[nH]1)C(=O)N1C[C@]2(C[C@H]1C#N)C(=O)Nc1ccccc12 [Example 126] | < 100
22 | C#CCOC[C@H](NC(=O)c1cc2c(OC)cccc2[nH]1)C(=O)N1C[C@]2(C[C@H]1C#N)C(=O)Nc1ccccc12 [Example 127] | < 100
23 | CC(C)(C)OC(=O)NC[C@H](NC(=O)c1cc2c(F)cc(F)cc2[nH]1)C(=O)N1C[C@]2(C[C@H]1C#N)C(=O)Nc1ccccc12 [Example 128] | > 1000
24 | N#C[C@@H]1C[C@@]2(CN1C(=O)[C@H](COCc1cnn[nH]1)NC(=O)c1cc3c(F)cc(F)cc3[nH]1)C(=O)Nc1ccccc12 [Example 129] | > 1000
25 | CC(C)(C)C[C@H](NC(=O)c1ccc2ncc(C(F)(F)F)cc2c1)C(=O)N1C[C@]2(C[C@H]1C#N)C(=O)Nc1ccccc12 [Example 134] | < 100
26 | Cc1cnc2ccc(C(=O)N[C@@H](CC(C)(C)C)C(=O)N3C[C@]4(C[C@H]3C#N)C(=O)Nc3ccccc34)cc2c1 [Example 135] | < 100
27 | CC(C)(C)C[C@H](NC(=O)c1ccc2ncc(C3CC3)cc2c1)C(=O)N1C[C@]2(C[C@H]1C#N)C(=O)Nc1ccccc12 [Example 136] | < 100
28 | CC(C)(C)C[C@H](NC(=O)c1cc(OC(F)(F)F)c2ncccc2c1)C(=O)N1C[C@]2(C[C@H]1C#N)C(=O)Nc1ccccc12 [Example 137] | < 100
29 | CC(C)(C)C[C@H](NC(=O)c1cc(Cl)c2ncccc2c1)C(=O)N1C[C@]2(C[C@H]1C#N)C(=O)Nc1ccccc12 [Example 138] | < 100
30 | CC(C)(C)C[C@H](NC(=O)c1cc(OC(F)F)c2ncccc2c1)C(=O)N1C[C@]2(C[C@H]1C#N)C(=O)Nc1ccccc12 [Example 139] | < 100
31 | CC(C)(C)C[C@H](NC(=O)c1cn(-c2ccc(Cl)cc2)nn1)C(=O)N1C[C@]2(C[C@H]1C#N)C(=O)Nc1ccccc12 [Example 140] | < 100
32 | CC(C)(C)C[C@H](NC(=O)c1cn(C2CC2)nn1)C(=O)N1C[C@]2(C[C@H]1C#N)C(=O)Nc1ccccc12 [Example 141] | < 100
33 | CC(C)(C)C[C@H](NC(=O)c1cn(-c2cccc(Cl)c2)nn1)C(=O)N1C[C@]2(C[C@H]1C#N)C(=O)Nc1ccccc12 [Example 142] | < 100
34 | CC(C)(C)C[C@H](NC(=O)c1cn(CC(F)(F)F)nn1)C(=O)N1C[C@]2(C[C@H]1C#N)C(=O)Nc1ccccc12 [Example 143] | < 100
35 | CC(C)(C)C[C@H](NC(=O)c1cnn(CC(F)(F)F)c1)C(=O)N1C[C@]2(C[C@H]1C#N)C(=O)Nc1ccccc12 [Example 144] | < 100
36 | CC(C)(C)C[C@H](NC(=O)c1cnn(-c2ccc(C(F)(F)F)cc2)c1)C(=O)N1C[C@]2(C[C@H]1C#N)C(=O)Nc1ccccc12 [Example 145] | < 100
37 | Cc1cc2cc(C(=O)N[C@@H](CC(C)(C)C)C(=O)N3C[C@]4(C[C@H]3C#N)C(=O)Nc3ccccc34)cc(Cl)c2nc1C [Example 147] | < 100
38 | CC(C)(C)C[C@H](NC(=O)c1cn(C2CCC2)nn1)C(=O)N1C[C@]2(C[C@H]1C#N)C(=O)Nc1ccccc12 [Example 148] | < 100
39 | CC(C)C[C@@H](C(=O)N1C[C@]2(C[C@H]1C=O)C(=O)Nc1ccccc12)N(C)C(=O)c1cc2c(F)cc(F)cc2[nH]1 [Example 149] | < 100
40 | CC(C)C[C@@H](C(=O)N1C[C@]2(C[C@H]1C=O)C(=O)Nc1ccccc12)N(C)C(=O)c1cc2c(F)cc(F)c(F)c2[nH]1 [Example 150] | < 100

Row | Structure (SMILES) | EC50 [nM]
41 | CC(C)C[C@@H](C(=O)N1C[C@]2(C[C@H]1C(O)S(=O)(=O)O)C(=O)Nc1ccccc12)N(C)C(=O)c1cc2c(F)cc(F)cc2[nH]1 (stereo partly drawn) [Example 153] | < 100
42 | CC(C)C[C@@H](C(=O)N1C[C@]2(C[C@H]1C(O)S(=O)(=O)O)C(=O)Nc1ccccc12)N(C)C(=O)c1cc2c(F)cc(F)c(F)c2[nH]1 (stereo partly drawn) [Example 154] | < 100
43 | CC(C)C[C@@H](C(=O)N1C[C@]2(C[C@H]1C(=O)C(=O)NC1CCCCC1)C(=O)Nc1ccccc12)N(C)C(=O)c1cc2c(F)cc(F)cc2[nH]1 [Example 155] | > 1000
44 | CC(C)C[C@@H](C(=O)N1C[C@]2(C[C@H]1C(=O)CO)C(=O)Nc1ccccc12)N(C)C(=O)c1cc2c(F)cc(F)cc2[nH]1 [Example 157] | 100 to 1000
45 | CC(C)C[C@@H](C(=O)N1C[C@]2(C[C@H]1C(=O)CO)C(=O)Nc1ccccc12)N(C)C(=O)c1cc2c(F)cc(F)c(F)c2[nH]1 [Example 158] | 100 to 1000
46 | CC(C)C[C@@H](C(=O)N1C[C@]2(C[C@H]1C(=O)CCl)C(=O)Nc1ccccc12)N(C)C(=O)c1cc2c(F)cc(F)c(F)c2[nH]1 [Example 159] | > 1000
47 | CC(C)C[C@@H](C(=O)N1C[C@]2(C[C@H]1C#N)C(=O)Nc1ccccc12)N(C(=O)OCc1ccccc1)C(C)C [Example 160] | > 1000
48 | CC(C)N(C(=O)OC(C)(C)C)[C@@H](Cc1ccccc1)C(=O)N1C[C@]2(C[C@H]1C#N)C(=O)Nc1ccccc12 [Example 161] | > 1000
49 | CC(C)C[C@@H](C(=O)N1C[C@]2(C[C@H]1C#N)C(=O)Nc1ccccc12)N(C)C(=O)c1cccc(Cl)c1 [Example 167] | < 100
50 | CC(C)C[C@@H](C(=O)N1C[C@]2(C[C@H]1C#N)C(=O)Nc1ccccc12)N(C)C(=O)c1ccc(Cl)cc1Cl [Example 168] | < 100
51 | CC(C)C[C@@H](C(=O)N1C[C@]2(C[C@H]1C#N)C(=O)Nc1ccccc12)N(C)C(=O)c1c(Cl)ccc(Cl)c1F [Example 169] | < 100
52 | COc1ccc(Cl)cc1C(=O)N(C)[C@@H](CC(C)C)C(=O)N1C[C@]2(C[C@H]1C#N)C(=O)Nc1ccccc12 [Example 170] | < 100
53 | CC(C)C[C@@H](C(=O)N1C[C@]2(C[C@H]1C#N)C(=O)Nc1ccccc12)N(C)C(=O)c1cc(Cl)c(F)cc1F [Example 171] | < 100
54 | CC(C)C[C@@H](C(=O)N1C[C@]2(C[C@H]1C#N)C(=O)Nc1ccccc12)N(C)C(=O)c1cc(Cl)cc(Cl)c1 [Example 172] | < 100
55 | CC(C)C[C@@H](C(=O)N1C[C@]2(C[C@H]1C#N)C(=O)Nc1ccccc12)N(C)C(=O)c1cc(F)cc(Cl)c1 [Example 173] | < 100
56 | CC(C)C[C@@H](C(=O)N1C[C@]2(C[C@H]1C#N)C(=O)Nc1ccccc12)N(C)C(=O)c1ccc(Cl)c(C(F)(F)F)c1 [Example 174] | < 100
57 | CC(C)C[C@@H](C(=O)N1C[C@]2(C[C@H]1C#N)C(=O)Nc1ccccc12)N(C)C(=O)c1ccc(Cl)c(F)c1F [Example 175] | < 100
58 | CC(C)C[C@@H](C(=O)N1C[C@]2(C[C@H]1C#N)C(=O)Nc1ccccc12)N(C)C(=O)c1ccc(F)c(C(F)(F)F)c1 [Example 177] | < 100
59 | CC(C)C[C@@H](C(=O)N1C[C@]2(C[C@H]1C#N)C(=O)Nc1ccccc12)N(C)C(=O)c1ccc(F)c(F)c1 [Example 178] | < 100
60 | CC(C)C[C@@H](C(=O)N1C[C@]2(C[C@H]1C#N)C(=O)Nc1ccccc12)N(C)C(=O)c1ccc(OC(F)(F)F)c(F)c1 [Example 179] | < 100
